# What was measured:
# barnyardgrass [1] = experiment: Test A preemergence; assay type: in vivo, Echinochloa crus-galli; conditions: for Barnyardgrass plant response rating (0 to 100 scale, 0 is no effect, 100 is complete control): 125 g ai/ha
# How it was run: (§1)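 Visual injury scored 0–100 (100 = complete control) against untreated controls about 10 days after treatment in a greenhouse. Test chemicals, formulated with surfactant in non-phytotoxic solvent, were sprayed on soil preemergence or on 2-10 cm, one- to two-leaf plants postemergence.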
# large (Lg) crabgrass [2] = experiment: Test A preemergence; assay type: in vivo, Digitaria sanguinalis; conditions: for Crabgrass, Large plant response rating (0 to 100 scale): 125 g ai/ha
# How it was run: as §1
# giant foxtail [3] = experiment: Test A preemergence; assay type: in vivo, Setaria faberii; conditions: for Foxtail, Giant plant response rating (0 to 100 scale): 125 g ai/ha
# How it was run: as §1
# morningglory [4] = experiment: Test A preemergence; assay type: in vivo, Ipomoea spp.; conditions: for Morningglory plant response rating (0 to 100 scale): 125 g ai/ha
# How it was run: as §1
# pigweed [5] = experiment: Test A preemergence; assay type: in vivo, Amaranthus retroflexus; conditions: for Pigweed plant response rating (0 to 100 scale): 125 g ai/ha
# How it was run: as §1
# velvetleaf [6] = experiment: Test A preemergence; assay type: in vivo, Abutilon theophrasti; conditions: for Velvetleaf plant response rating (0 to 100 scale): 125 g ai/ha
# How it was run: as §1
# wheat [7] = experiment: Test A preemergence; assay type: in vivo, Triticum aestivum; conditions: for Wheat plant response rating (0 to 100 scale): 125 g ai/ha
# How it was run: as §1
# corn [8] = experiment: Test A preemergence; assay type: in vivo, Zea mays; conditions: for Corn plant response rating (0 to 100 scale): 125 g ai/ha
# How it was run: as §1
# barnyardgrass [9] = experiment: Test A postemergence; assay type: in vivo, Echinochloa crus-galli
# How it was run: as §1
# large (Lg) crabgrass [10] = experiment: Test A postemergence; assay type: in vivo, Digitaria sanguinalis
# How it was run: as §1
# giant foxtail [11] = experiment: Test A postemergence; assay type: in vivo, Setaria faberii
# How it was run: as §1
# morningglory [12] = experiment: Test A postemergence; assay type: in vivo, Ipomoea spp.
# How it was run: as §1
# pigweed [13] = experiment: Test A postemergence; assay type: in vivo, Amaranthus retroflexus
# How it was run: as §1
# velvetleaf [14] = experiment: Test A postemergence; assay type: in vivo, Abutilon theophrasti
# How it was run: as §1
# wheat [15] = experiment: Test A postemergence; assay type: in vivo, Triticum aestivum
# How it was run: as §1
# corn [16] = experiment: Test A postemergence; assay type: in vivo, Zea mays
# How it was run: as §1
# rice = experiment: Test B flooded paddy test; assay type: in vivo, Oryza sativa; conditions: Flood, 250 g ai/ha; 0 to 100 scale where 0 is no effect and 100 is complete control
# How it was run: (§2)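 Plants were grown to the 2-leaf stage, then pots were flooded to 3 cm above the soil and compounds were applied directly into the paddy water. That depth was held throughout, and after 13 to 15 days in the greenhouse injury was rated visually against controls on a 0–100 scale (0 no effect, 100 complete control).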
# sedge, umbrella = experiment: Test B flooded paddy test; assay type: in vivo, Cyperus difformis; conditions: Flood, 250 g ai/ha; 0 to 100 scale where 0 is no effect and 100 is complete control
# How it was run: as §2
# Heteranthera limosa = experiment: Test B flooded paddy test; assay type: in vivo; conditions: Flood, 250 g ai/ha; 0 to 100 scale where 0 is no effect and 100 is complete control
# How it was run: as §2
# barnyardgrass [17] = experiment: Test B flooded paddy test; assay type: in vivo, Echinochloa crus-galli; conditions: Flood, 250 g ai/ha; 0 to 100 scale where 0 is no effect and 100 is complete control
# How it was run: as §2
# [18] = 500 g ai/ha, 0 to 100 scale where 0 is no effect and 100 is complete control
# [19] = 125 g ai/ha, 0 to 100 scale, 0 no effect, 100 complete control
# [20] = 1000 g ai/ha, 0 to 100 scale, 0 no effect, 100 complete control, approx. 10 days
# [21] = 1000 g ai/ha, 0 to 100 scale, 0 no effect, 100 complete control
Compound,"Barnyardgrass plant response rating (0 to 100 scale, 0 is no effect, 100 is complete control) (barnyardgrass [1])",Barnyardgrass plant response rating (barnyardgrass [1]; [18]),"Crabgrass, Large plant response rating (0 to 100 scale) (large (Lg) crabgrass [2])","Crabgrass, Large plant response rating (large (Lg) crabgrass [2]; [18])","Foxtail, Giant plant response rating (0 to 100 scale) (giant foxtail [3])","Foxtail, Giant plant response rating (giant foxtail [3]; [18])",Morningglory plant response rating (0 to 100 scale) (morningglory [4]),Morningglory plant response rating (morningglory [4]; [18]),Pigweed plant response rating (0 to 100 scale) (pigweed [5]),Pigweed plant response rating (pigweed [5]; [18]),Velvetleaf plant response rating (0 to 100 scale) (velvetleaf [6]),Velvetleaf plant response rating (velvetleaf [6]; [18]),Wheat plant response rating (0 to 100 scale) (wheat [7]),Wheat plant response rating (wheat [7]; [18]),Corn plant response rating (0 to 100 scale) (corn [8]),Corn plant response rating (corn [8]; [18]),"Plant response rating, Rice (rice)","Plant response rating, Sedge, Umbrella (sedge, umbrella)","Plant response rating, Ducksalad (Heteranthera limosa)","Plant response rating, Barnyardgrass (barnyardgrass [17])",further results
CNN=Cc1cccc(Oc2ncc(Cl)cn2)c1-n1cc(Br)cn1 [Compound 289],0,20,0,10,0,10,0,0,20,100,0,10,0,0,0,0,0,0,0,0,"Plant response rating, Barnyardgrass (barnyardgrass [9]; [19]): 0; Plant response rating, Barnyardgrass (barnyardgrass [9]; [18]): 20; Plant response rating, Crabgrass, Large (large (Lg) crabgrass [10]; [19]): 0; Plant response rating, Crabgrass, Large (large (Lg) crabgrass [10]; [18]): 20; Plant response rating, Foxtail, Giant (giant foxtail [11]; [19]): 0; Plant response rating, Foxtail, Giant (giant foxtail [11]; [18]): 30; Plant response rating, Morningglory (morningglory [12]; [19]): 20; Plant response rating, Morningglory (morningglory [12]; [18]): 50; Plant response rating, Pigweed (pigweed [13]; [19]): 100; Plant response rating, Pigweed (pigweed [13]; [18]): 100; Plant response rating, Velvetleaf (velvetleaf [14]; [19]): 10; Plant response rating, Velvetleaf (velvetleaf [14]; [18]): 40; Plant response rating, Wheat (wheat [15]; [19]): 0; Plant response rating, Wheat (wheat [15]; [18]): 0; Plant response rating, Corn (corn [16]; [19]): 0; Plant response rating, Corn (corn [16]; [18]): 10"
Clc1cnc(Oc2cccc(-c3cccnc3)c2-n2cc(Br)cn2)nc1 [Compound 290],0,0,0,10,0,10,0,0,0,0,0,0,0,0,0,0,0,0,0,0,"Plant response rating, Barnyardgrass (barnyardgrass [9]; [19]): 0; Plant response rating, Barnyardgrass (barnyardgrass [9]; [18]): 0; Plant response rating, Crabgrass, Large (large (Lg) crabgrass [10]; [19]): 0; Plant response rating, Crabgrass, Large (large (Lg) crabgrass [10]; [18]): 10; Plant response rating, Foxtail, Giant (giant foxtail [11]; [19]): 0; Plant response rating, Foxtail, Giant (giant foxtail [11]; [18]): 10; Plant response rating, Morningglory (morningglory [12]; [19]): 0; Plant response rating, Morningglory (morningglory [12]; [18]): 10; Plant response rating, Pigweed (pigweed [13]; [19]): 10; Plant response rating, Pigweed (pigweed [13]; [18]): 20; Plant response rating, Velvetleaf (velvetleaf [14]; [19]): 10; Plant response rating, Velvetleaf (velvetleaf [14]; [18]): 30; Plant response rating, Wheat (wheat [15]; [19]): 0; Plant response rating, Wheat (wheat [15]; [18]): 0; Plant response rating, Corn (corn [16]; [19]): 0; Plant response rating, Corn (corn [16]; [18]): 10"
CNN=Cc1cccc(Oc2ncc(Cl)cn2)c1-n1cc(Cl)cn1 [Compound 296],0,10,0,60,0,10,0,0,0,90,0,10,0,0,0,0,0,0,0,0,"Plant response rating, Barnyardgrass (barnyardgrass [9]; [19]): 0; Plant response rating, Barnyardgrass (barnyardgrass [9]; [18]): 0; Plant response rating, Crabgrass, Large (large (Lg) crabgrass [10]; [19]): 0; Plant response rating, Crabgrass, Large (large (Lg) crabgrass [10]; [18]): 0; Plant response rating, Foxtail, Giant (giant foxtail [11]; [19]): 0; Plant response rating, Foxtail, Giant (giant foxtail [11]; [18]): 0; Plant response rating, Morningglory (morningglory [12]; [19]): 20; Plant response rating, Morningglory (morningglory [12]; [18]): 20; Plant response rating, Pigweed (pigweed [13]; [19]): 30; Plant response rating, Pigweed (pigweed [13]; [18]): 100; Plant response rating, Velvetleaf (velvetleaf [14]; [19]): 30; Plant response rating, Velvetleaf (velvetleaf [14]; [18]): 30; Plant response rating, Wheat (wheat [15]; [19]): 0; Plant response rating, Wheat (wheat [15]; [18]): 20; Plant response rating, Corn (corn [16]; [19]): 0; Plant response rating, Corn (corn [16]; [18]): 10"
C[Si](C)(C)c1cn(-c2ccccc2Oc2ncc(Cl)cn2)nn1 [Compound 297],–,–,–,–,–,–,–,–,–,–,–,–,–,–,–,–,0,0,0,0,"Barnyardgrass plant response rating (barnyardgrass [1]; [20]): 10; Crabgrass, Large plant response rating (large (Lg) crabgrass [2]; [20]): 90; Foxtail, Giant plant response rating (giant foxtail [3]; [20]): 80; Morningglory plant response rating (morningglory [4]; [20]): 0; Pigweed plant response rating (pigweed [5]; [20]): 70; Velvetleaf plant response rating (velvetleaf [6]; [20]): 50; Wheat plant response rating (wheat [7]; [20]): 0; Corn plant response rating (corn [8]; [20]): 0; Plant response rating, Barnyardgrass (barnyardgrass [9]; [21]): 10; Plant response rating, Crabgrass, Large (large (Lg) crabgrass [10]; [21]): 30; Plant response rating, Foxtail, Giant (giant foxtail [11]; [21]): 10; Plant response rating, Morningglory (morningglory [12]; [21]): 30; Plant response rating, Pigweed (pigweed [13]; [21]): 70; Plant response rating, Velvetleaf (velvetleaf [14]; [21]): 60; Plant response rating, Wheat (wheat [15]; [21]): 0; Plant response rating, Corn (corn [16]; [21]): 0"

# Reference: patent US9695155B2, “Herbicidal substituted pyrimidinyloxy benzene compounds” (E. I. DU PONT DE NEMOURS AND COMPANY, priority 2013, dated 2017)
